Test results from patent US20200385396A1, “Compond for treatment or prevention of obesity or diseases related to obesity, and application thereof” (SHANGHAI INSTITUTES FOR BIOLOGICAL SCIENCES, CHINESE …, priority 2017, published 2020).

Tests used:
Water solubility = format: physicochemical
[1] = system: lipid metabolism related genes; test: Expression of lipid metabolism related genes in tissues (RT-PCR); format: in vivo, mouse; details: 20 mg/kg 3 consecutive days
Procedure: Mice fed with normal diet are injected with 20 mg/kg of HLY72 for 3 consecutive days, and the white adipose tissue (A) is taken to detect fat storage, fatty acid synthesis and decomposition-related gene expression. Liver (B) is taken to detect fatty acid transport and oxidative gene expression. Muscle (C) is taken to test the fatty acid transport and oxidative gene expression (14 mice per group).
After the mice were euthanized, the corresponding tissues were immediately peeled off and quickly frozen with liquid nitrogen and stored at −80° C. For the cell sample in the 6-well petri dish, after removing the culture medium, 1 mL of Trizol was added and placed at room temperature for 10 minutes, then transferred to a 1.5 mL EP tube and stored at −80° C. When extracting tissue RNA, 1.5 mL of Trizol was added to the tissue homogenization tube containing steel balls, the tissue was removed from the −80° C. refrigerator and put into the homogenization tube to homogenize and crush. RNA was extracted by phenol-chloroform-isopropanol method. Using the Superscript™III first strand synthesis system (Invitrogen) kit, 1 μg of mRNA was reverse transcribed into cDNA, and random primers were used for reverse transcription. Quantitative SYBR green PCR kit (Takara) kit was used for quantitative PCR reaction. The instrument for PCR reaction was ABI-QuantStudio 6 Realtime PCR instrument.
After injection of HLY72 in mice, the epididymal white adipose tissue, liver and muscle tissue were taken to detect the expression of lipid metabolism related genes. […] The expression of fatty acid transporter gene FAT (CD36), FATP2, FATP5 on the liver cell membrane is increased, the expression of the transporter gene CPT1A for fatty acid entering the mitochondria and the key enzyme gene ACADM of fatty acid β-oxidation are increased (FIG. 15b). At the same time, the expression of muscle cell membrane fatty acid transporter genes FATP1 and FATP4 are increased, and the expression of the transporter gene CPT1B for fatty acid entering the mitochondria and the key enzyme gene ACADM of fatty acid β-oxidation are increased (FIG. 15c). Changes in gene expression in these tissues indicate that liver and muscle tissues have increased the use of fatty acids.

NUCB2 protein = target: T1, NUCB2 protein (Mus musculus, UniProt P81117); test: Competitive binding experiment: small molecules compete with Bio78 (HLY179) for NUCB2; details: competitor final concentration 100 μM; HLY179 20 μM
T1 construct: Immediately the mouse full-length NUCB2 protein expressed in E. coli was purified; His tag (inferred from pET-28A vector, Ni-NTA purification and His antibody); made in house; host or cells: E. coli BL21-CodonPlus (DE3)
T1 sequence (P81117 25-420): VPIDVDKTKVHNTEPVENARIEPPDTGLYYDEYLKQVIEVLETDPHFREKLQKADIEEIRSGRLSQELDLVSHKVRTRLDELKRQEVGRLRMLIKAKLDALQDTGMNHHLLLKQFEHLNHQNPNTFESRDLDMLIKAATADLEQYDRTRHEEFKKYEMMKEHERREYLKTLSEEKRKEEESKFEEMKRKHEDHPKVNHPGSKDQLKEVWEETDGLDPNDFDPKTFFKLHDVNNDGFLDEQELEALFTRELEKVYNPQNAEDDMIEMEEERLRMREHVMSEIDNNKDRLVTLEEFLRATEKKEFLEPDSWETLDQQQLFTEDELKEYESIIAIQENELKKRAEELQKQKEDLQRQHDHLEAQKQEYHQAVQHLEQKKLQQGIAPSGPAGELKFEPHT
Procedure: When doing the combining experiments, (1) pre-treating Streptavidin-Agarose, washing Streptavidin-Agarose Beads with IP buffer, and spinning it on the rotor for 10 minutes. (2) Re-binding small molecules HLY179 (20 μM) and Streptavidin-Agarose Beads, spinning it in a refrigeration house at 4° C. for 1-2 hours. (3) When the previous step was performed for about 1 hour, the protein was pre-cleared at the same time, and the protein and the washed Streptavidin-Agarose were rotated in a refrigeration house at 4° C. for 30 minutes. (4) the Streptavidin-Agarose Beads binded with HLY179 was centrifuged, the supernatant was removed, washed again with 600 μL of IP buffer (rotated at 4° C. for 3 minutes), centrifuged, and the supernatant was removed carefully. (5) the pre-cleard protein was added and rotated in a refrigeration house at 4° C. for 2 hours. Washd twice with IP buffer 800 μL, 2 minutes each time (all rotated in a refrigeration house at 4° C.). After the last wash, the supernatant was removed, 40 μL of 2*loading was added and cooked for 10 minutes, stored at −20° C. When doing competitive binding experiments, in the third step while pre-treating the protein adding different small molecule compounds, the final concentration was 100 μM, and the rest was the same. Western Blot: Preparing the appropriate concentration of SDS-PAGE gel, adding protein sample for electrophoretic separation. […]

Compound: C=Cc1cccc2c1N(C)Cc1cc3c(cc1-2)OCO3 [HLY72]
- water solubility (Water solubility): very poor
- expression of ACADM ([1]; liver): increased
- expression of CPT1A ([1]; liver): increased
- expression of FAT (CD36) ([1]; liver): increased
- expression of FATP2 ([1]; liver): increased
- expression of FATP5 ([1]; liver): increased
- expression of ACADM ([1]; muscle): increased
- expression of CPT1B ([1]; muscle): increased
- expression of FATP1 ([1]; muscle): increased
- expression of FATP4 ([1]; muscle): increased
- expression of ATGL (lipolytic gene) ([1]; white adipose tissue): increase
- expression of DGAT (fat storage gene) ([1]; white adipose tissue): significantly reduced
- expression of FAS (fatty acid synthesis gene) ([1]; white adipose tissue): significantly down-regulated
- expression of SCD1 (fatty acid synthesis gene) ([1]; white adipose tissue): significantly down-regulated
- compete with Bio78 for binding to NUCB2 (NUCB2 protein): can also compete
